Read-outs that look alike come from different tables or passages of the source.
Tested on: HCV proteins in Rep5.1 cells (replicon cell line)
Experiment: Inhibitory activity of HCV: cell-based ELISA in replicon cell line Rep5.1 (decrease of HCV proteins)
Design: species or system hepatitis C virus
Method in brief: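 Rep5.1 replicon cells (5000/well, DMEM-10 with 500 μg/ml G418) were given serially diluted drug 4 h after seeding. After 72 h, cells were fixed in methanol/acetone and HCV proteins detected by cell-based ELISA using replicon-specific patient plasma antibodies. IC50 is the concentration giving 50% protein decrease versus the no-drug control.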

[1] = Hepatitis C virus, 72 h, Rep5.1 cells, 72 hours with drug, concentration at which 50% of HCV proteins was decreased, Table 2, read-out: IC50
[2] = Hepatitis C virus, 72 h, Rep5.1 cells, 72 hours with drug, decrease of HCV proteins measured by HCV antibody, Table 1, read-out: Level (IC50 values classified)
[3] = Hepatitis C virus, 72 h, read-out: Level (IC50 values classified)
[4] = Rep5.1 cells, 72 hours with drug, concentration at which 50% of HCV proteins was decreased, Table 2, read-out: IC50

Molecule `CC1=C(C(=O)OCCCCc2ccsc2)C(CF)NC(=S)N1` (stereo not drawn) [61′, 4-fluoromethyl-6-methyl-2-thioxo-1,2,3,4-tetrahydro-pyrimidine-5-carboxylic acid 4-thiophen-3-yl-butyl ester] has an IC50 [1] of 3 µM and an IC50 [2] of 1 to 10 µM.

In the case of `CC1=C(C(=O)OCCc2ccc(F)cc2)CNC(=S)N1` [Compound 259, 6-methyl-2-thioxo-1,2,3,4-tetrahydro-pyrimidine-5-carboxylic acid 2-(4-fluoro-phenyl)-ethyl ester], the IC50 [1] is reported as less than 0.4 µM and the IC50 [2] is reported as less than 1 µM.

`COc1ccc(CCCOC(=O)C2=C(C)NC(=S)NC2)cc1OC` [Compound 36, 6-methyl-2-thioxo-1,2,3,4-tetrahydro-pyrimidine-5-carboxylic acid 3-(3,4-dimethoxy-phenyl)-propyl ester] showed an IC50 [1] of 84 µM and an IC50 [2] greater than 20 µM.

With `CC1=C(C(=O)OCCOC2CCc3ccccc32)CNC(=S)N1` (stereo not drawn) [Compound 125, 6-methyl-2-thioxo-1,2,3,4-tetrahydro-pyrimidine-5-carboxylic acid 2-(indan-1-yloxy)-ethyl ester] the IC50 [1] was 2 µM and the IC50 [2] was 1 to 10 µM.

Work on `CC1=C(C(=O)OC(C)Cc2ccsc2)CNC(=S)N1` (stereo not drawn) [Compound 255, 6-methyl-2-thioxo-1,2,3,4-tetrahydro-pyrimidine-5-carboxylic acid 2-thiophen-3-yl-1-methyl-ethyl ester] yielded an IC50 [1] of 2 µM and an IC50 [2] of 1 to 10 µM.

Molecule `CC1=C(C(=O)OCCc2c[nH]c3ccccc23)CNC(=S)N1` [Compound 102, 6-methyl-2-thioxo-1,2,3,4-tetrahydro-pyrimidine-5-carboxylic acid 2-(1H-indol-3-yl)-ethyl ester] has an IC50 [1] of 2 µM and an IC50 [2] of 1 to 10 µM.

`CC1=C(C(=O)OCC2CC3CCC2C3)CNC(=S)N1` (stereo not drawn) [Compound 151, 6-methyl-2-thioxo-1,2,3,4-tetrahydro-pyrimidine-5-carboxylic acid bicyclo[2.2.1]hept-2-ylmethyl ester] gave an IC50 (Hepatitis C virus, 72 h) of less than 0.4 µM and an IC50 [3] of less than 1 µM.

With `CC1=C(C(=O)OCCc2ccsc2)C(CF)NC(=S)N1` (stereo not drawn) [Compound 252, 4-fluoromethyl-6-methyl-2-thioxo-1,2,3,4-tetrahydro-pyrimidine-5-carboxylic acid 2-thiophen-3-yl-ethyl ester] the IC50 [1] was 1.4 µM and the IC50 [2] was 1 to 10 µM.

`CC(C)=CCOC(=O)C1=C(C)NC(=S)NC1` [Compound 53, 6-methyl-2-thioxo-1,2,3,4-tetrahydro-pyrimidine-5-carboxylic acid 3-methyl-but-2-enyl ester] was tested, and the IC50 (Hepatitis C virus, 72 h) was 6.6 µM and the IC50 [3] was 1 to 10 µM.

With `CC1=C(C(=O)OC2CCN(Cc3ccccc3)CC2)CNC(=S)N1` [Compound 86, 6-methyl-2-thioxo-1,2,3,4-tetrahydro-pyrimidine-5-carboxylic acid 1-benzyl-piperidin-4-yl ester] the IC50 [1] was greater than 100 µM and the IC50 [2] was greater than 20 µM.

Molecule `CC1=C(C(=O)OCCc2ccc(Cl)cc2Cl)C(CO)NC(=S)N1` (stereo not drawn) [43″, 4-hydroxymethyl-6-methyl-2-thioxo-1,2,3,4-tetrahydro-pyrimidine-5-carboxylic acid 2-(2,4-dichloro-phenyl)-ethyl ester] has an IC50 [1] of less than 0.4 µM and an IC50 [2] of less than 1 µM.

With `CCOc1ccc(CCOC(=O)C2=C(C)NC(=S)NC2CO)cc1` (stereo not drawn) [60″, 4-hydroxymethyl-6-methyl-2-thioxo-1,2,3,4-tetrahydro-pyrimidine-5-carboxylic acid 2-(4-ethoxy-phenyl)-ethyl ester] the IC50 [1] was 2.5 µM and the IC50 [2] was 1 to 10 µM.

Work on `CC1=C(C(=O)OCc2cccc(F)c2)CNC(=S)N1` [Compound 83, 6-methyl-2-thioxo-1,2,3,4-tetrahydro-pyrimidine-5-carboxylic acid 3-fluoro-benzyl ester] yielded an IC50 [1] of 1 µM and an IC50 [2] of less than 1 µM.

With `CC1=C(C(=O)OCc2ccccc2)C(CO)NC(=S)N1` (stereo not drawn) [8″, 4-hydroxymethyl-6-methyl-2-thioxo-1,2,3,4-tetrahydro-pyrimidine-5-carboxylic acid benzyl ester] the IC50 [1] was greater than 100 µM and the IC50 [2] was greater than 20 µM.

Work on `CC1=C(C(=O)OCCc2cccc(Cl)c2)C(CF)NC(=S)N1` (stereo not drawn) [70′, 4-fluoromethyl-6-methyl-2-thioxo-1,2,3,4-tetrahydro-pyrimidine-5-carboxylic acid 2-(3-chloro-phenyl)-ethyl ester] yielded an IC50 [1] of 1 µM and an IC50 [2] of less than 1 µM.

`CC1=C(C(=O)OCCc2ccsc2)[C@H](CF)NC(=S)N1` [24′, (R)-4-fluoromethyl-6-methyl-2-thioxo-1,2,3,4-tetrahydro-pyrimidine-5-carboxylic acid 2-thiophen-3-yl-ethyl ester] gave an IC50 [1] of 4.4 µM and an IC50 [2] of 1 to 10 µM.

Work on `CC1=C(C(=O)OCC#CCOCc2ccccc2)CNC(=S)N1` [Compound 214, 6-methyl-2-thioxo-1,2,3,4-tetrahydro-pyrimidine-5-carboxylic acid 4-benzyloxy-but-2-inyl ester] yielded an IC50 [4] of less than 0.4 µM.

In the case of `CC1=C(C(=O)OCCCc2ccco2)CNC(=S)N1` [Compound 250, 6-methyl-2-thioxo-1,2,3,4-tetrahydro-pyrimidine-5-carboxylic acid 3-furan-2-yl-propyl ester], the IC50 [1] is reported as 0.4 µM and the IC50 [2] is reported as less than 1 µM.

Molecule `CC1=C(C(=O)OCCCc2cccs2)C(CF)NC(=S)N1` (stereo not drawn) [10′, 4-fluoromethyl-6-methyl-2-thioxo-1,2,3,4-tetrahydro-pyrimidine-5-carboxylic acid 3-thiophen-2-yl-propyl ester] has an IC50 [1] of 1.2 µM and an IC50 [2] of 1 to 10 µM.

`CC1=C(C(=O)OCc2ccc(F)cc2Cl)CNC(=S)N1` [Compound 70, 6-methyl-2-thioxo-1,2,3,4-tetrahydro-pyrimidine-5-carboxylic acid 2-chloro-4-fluoro-benzyl ester] showed an IC50 [1] of less than 0.5 µM and an IC50 [2] of less than 1 µM.

`CC1=C(C(=O)OC2CCCCC2)CNC(=S)N1` [Compound 37, 6-methyl-2-thioxo-1,2,3,4-tetrahydro-pyrimidine-5-carboxylic acid cyclohexyl ester] gave an IC50 [1] of 4 µM and an IC50 [2] of 1 to 10 µM.

For `CC1=C(C(=O)OCCc2ccc(Cl)c(C(F)(F)F)c2)C(CO)NC(=S)N1` (stereo not drawn) [67″, 4-hydroxymethyl-6-methyl-2-thioxo-1,2,3,4-tetrahydro-pyrimidine-5-carboxylic acid 2-(4-chloro-3-trifluoromethyl-phenyl)-ethyl ester], the IC50 [1] was less than 0.4 µM and the IC50 [2] was less than 1 µM.

Work on `CC1=C(C(=O)O[C@H](C)c2ccccc2)CNC(=S)N1` (racemic) [Compound 26, 6-methyl-2-thioxo-1,2,3,4-tetrahydro-pyrimidine-5-carboxylic acid (R,S)-1-phenyl-ethyl ester] yielded an IC50 [4] of 3 µM.

`CCC#CCCOC(=O)C1=C(C)NC(=S)NC1` [Compound 157, 6-methyl-2-thioxo-1,2,3,4-tetrahydro-pyrimidine-5-carboxylic acid hex-3-inyl ester] showed an IC50 [4] of 1 µM.

`CC1=C(C(=O)OCc2cc(Cl)ccc2[N+](=O)[O-])CNC(=S)N1` [Compound 143, 6-methyl-2-thioxo-1,2,3,4-tetrahydro-pyrimidine-5-carboxylic acid 5-chloro-2-nitro-benzyl ester] was tested, and the IC50 [1] was 0.4 µM and the IC50 [2] was less than 1 µM.

`COc1ccc(OC)c(COC(=O)C2=C(C)NC(=S)NC2)c1` [Compound 174, 6-methyl-2-thioxo-1,2,3,4-tetrahydro-pyrimidine-5-carboxylic acid 2,5-dimethoxy-benzyl ester] showed an IC50 [1] of 7 µM and an IC50 [2] of 1 to 10 µM.

Molecule `CC1=C(C(=O)OCc2ccc(Cl)cc2Cl)CNC(=S)N1` [Compound 41, 6-methyl-2-thioxo-1,2,3,4-tetrahydro-pyrimidine-5-carboxylic acid 2,4-dichloro-benzyl ester] has an IC50 [1] of less than 0.4 µM and an IC50 [2] of less than 1 µM.

Reference: patent US20060116390A1, “Hepatitis c virus inhibitors” (priority 2003, published 2006)
